What was measured:
[1] = Cytotoxicity against human SMMC7721 cells assessed as reduction in cell viability after 48 hrs by MTT assay; type: functional, cell-based; conditions: SMMC-7721, 48 h
[2] = Cytotoxicity against human NCI-H460 cells assessed as reduction in cell viability after 48 hrs by MTT assay; type: functional, cell-based; conditions: NCI-H460, 48 h
[3] = Cytotoxicity against human U251 cells assessed as reduction in cell viability after 48 hrs by MTT assay; type: functional, cell-based; conditions: U-251, 48 h
[4] = Cytotoxicity against human SKOV3 cells assessed as reduction in cell viability after 48 hrs by MTT assay; type: functional, cell-based; conditions: SK-OV-3, 48 h
[5] = Cytotoxicity against human HCT116 cells assessed as reduction in cell viability after 48 hrs by MTT assay; type: functional, cell-based; conditions: HCT-116, 48 h
[6] = Cytotoxicity against human SGC7901 cells assessed as reduction in cell viability after 48 hrs by MTT assay; type: functional, cell-based; conditions: SGC-7901, 48 h
Mus musculus [7] = assay: Toxicity in mouse assessed as death time administered as submicron emulsions through caudal vein injection dosed daily; type: organism-based; conditions: in vivo, iv
[8] = Antitumor activity against H22 cells xenografted in nude mouse assessed as tumor growth inhibition at 10 mg/kg administered as submicron emulsions through caudal vein injection dosed daily for 14 days; type: functional; conditions: H22, 336 h; read-out: TGI
[9] = Antitumor activity against H22 cells xenografted in nude mouse assessed as tumor growth inhibition at 20 mg/kg administered as submicron emulsions through caudal vein injection dosed daily for 14 days; type: functional; conditions: H22, 336 h; read-out: TGI
Mus musculus [10] = assay: Toxicity in nude mouse xenografted with […] cells assessed as body weight level at 10 mg/kg administered as submicron emulsions through caudal vein injection dosed daily for 14 days (reference value: 42.63 +/- 5.81 g); type: organism-based; conditions: in vivo, iv, 336 h
Mus musculus [11] = assay: Toxicity in nude mouse xenografted with […] cells assessed as body weight level at 20 mg/kg administered as submicron emulsions through caudal vein injection dosed daily for 14 days (reference value: 42.63 +/- 5.81 g); type: organism-based; conditions: in vivo, iv, 336 h
Mus musculus [12] = assay: Toxicity in nude mouse xenografted with […] cells assessed as induction of mouse mortality at 10 mg/kg administered as submicron emulsions through caudal vein injection dosed daily for 14 days; type: organism-based; conditions: in vivo, iv, 336 h
Mus musculus [13] = assay: Toxicity in nude mouse xenografted with […] cells assessed as induction of mouse mortality at 20 mg/kg administered as submicron emulsions through caudal vein injection dosed daily for 14 days; type: organism-based; conditions: in vivo, iv, 336 h
[14] = Toxicity in mouse assessed as tolerance dose administered as submicron emulsions through caudal vein injection dosed daily for 7 days; type: organism-based; conditions: in vivo, iv, read-out: Activity
[15] = Antitumor activity against H22 cells xenografted in nude mouse assessed as tumor growth inhibition at 6 mg/kg administered as submicron emulsions through caudal vein injection dosed every 3 days for 14 days; type: functional; conditions: read-out: TGI
Mus musculus [16] = assay: Toxicity in nude mouse xenografted with […] cells assessed as body weight level at 6 mg/kg administered as submicron emulsions through caudal vein injection dosed every 3 days for 14 days (reference value: 42.63 +/- 5.81 g); type: organism-based; conditions: in vivo, iv
[17] = Cytotoxicity against human SMMC7721 cells assessed as reduction in cell viability after 24 hrs by MTT assay; type: functional, cell-based; conditions: SMMC-7721, 24 h
[18] = Cytotoxicity against human NCI-H460 cells assessed as reduction in cell viability after 24 hrs by MTT assay; type: functional, cell-based; conditions: NCI-H460, 24 h
[19] = Cytotoxicity against human U251 cells assessed as reduction in cell viability after 24 hrs by MTT assay; type: functional, cell-based; conditions: U-251, 24 h
[20] = Cytotoxicity against human SKOV3 cells assessed as reduction in cell viability after 24 hrs by MTT assay; type: functional, cell-based; conditions: SK-OV-3, 24 h
[21] = Cytotoxicity against human HCT116 cells assessed as reduction in cell viability after 24 hrs by MTT assay; type: functional, cell-based; conditions: HCT-116, 24 h
[22] = Cytotoxicity against human SGC7901 cells assessed as reduction in cell viability after 24 hrs by MTT assay; type: functional, cell-based; conditions: SGC-7901, 24 h

| SMILES | IC50 [1] [µM] | IC50 [2] [µM] | IC50 [3] [µM] | IC50 [4] [µM] | IC50 [5] [µM] | IC50 [6] [µM] | Time (Mus musculus [7]) [days] | other results |
| --- | --- | --- | --- | --- | --- | --- | --- | --- |
| COC(=O)[C@]12CCC(C)(C)C[C@H]1C1=CC[C@@H]3[C@@]4(C)CC[C@H](O[C@@H]5OC[C@H](O[C@@H]6O[C@H](CO)[C@@H](O)[C@H](O)[C@H]6O)[C@H](O)[C@H]5O[C@@H]5O[C@@H](C)[C@H](O)[C@@H](O)[C@H]5O)C(C)(C)[C@@H]4CC[C@@]3(C)[C@]1(C)CC2 | 3.5 | 1.3 | 1.1 | 3.1 | 4.6 | 1.7 | > 7 | inhibition in vivo at 10 mg/kg [8]: 36.2%; inhibition in vivo at 20 mg/kg [9]: 46.8%; Activity (Mus musculus [10]): 41.05 g; Activity (Mus musculus [11]): 39.74 g; Activity (Mus musculus [12]): Non-Toxic; Activity (Mus musculus [13]): Non-Toxic |
| CCOC(=O)[C@]12CCC(C)(C)C[C@H]1C1=CC[C@@H]3[C@@]4(C)CC[C@H](O[C@@H]5OC[C@H](O[C@@H]6O[C@H](CO)[C@@H](O)[C@H](O)[C@H]6O)[C@H](O)[C@H]5O[C@@H]5O[C@@H](C)[C@H](O)[C@@H](O)[C@H]5O)C(C)(C)[C@@H]4CC[C@@]3(C)[C@]1(C)CC2 | 3.5 | 2.7 | 1.6 | 5.8 | 5.3 | 4.9 | – | – |
| C[C@@H]1O[C@@H](O[C@H]2[C@H](O[C@H]3CC[C@]4(C)[C@H]5CC=C6[C@@H]7CC(C)(C)CC[C@]7(C(=O)OCCO)CC[C@@]6(C)[C@]5(C)CC[C@H]4C3(C)C)OC[C@H](O[C@@H]3O[C@H](CO)[C@@H](O)[C@H](O)[C@H]3O)[C@@H]2O)[C@H](O)[C@H](O)[C@H]1O | 35.6 | 46.7 | 13.4 | 19.7 | 25.6 | 20.6 | – | – |
| CNC(=O)[C@]12CCC(C)(C)C[C@H]1C1=CC[C@@H]3[C@@]4(C)CC[C@H](O[C@@H]5OC[C@H](O[C@@H]6O[C@H](CO)[C@@H](O)[C@H](O)[C@H]6O)[C@H](O)[C@H]5O[C@@H]5O[C@@H](C)[C@H](O)[C@@H](O)[C@H]5O)C(C)(C)[C@@H]4CC[C@@]3(C)[C@]1(C)CC2 | > 100 | > 100 | 46.7 | > 100 | 41.9 | 55.8 | – | – |
| C[C@@H]1O[C@@H](O[C@H]2[C@H](O[C@H]3CC[C@]4(C)[C@H]5CC=C6[C@@H]7CC(C)(C)CC[C@]7(C(=O)OCCCO)CC[C@@]6(C)[C@]5(C)CC[C@H]4C3(C)C)OC[C@H](O[C@@H]3O[C@H](CO)[C@@H](O)[C@H](O)[C@H]3O)[C@@H]2O)[C@H](O)[C@H](O)[C@H]1O | > 100 | 55.7 | 43.5 | > 100 | 39.2 | 47.3 | – | – |
| C[C@@H]1O[C@@H](O[C@H]2[C@H](O[C@H]3CC[C@]4(C)[C@H]5CC=C6[C@@H]7CC(C)(C)CC[C@]7(C(=O)OCCCC(=O)O)CC[C@@]6(C)[C@]5(C)CC[C@H]4C3(C)C)OC[C@H](O[C@@H]3O[C@H](CO)[C@@H](O)[C@H](O)[C@H]3O)[C@@H]2O)[C@H](O)[C@H](O)[C@H]1O | 8.3 | 14.1 | 11.7 | 9.6 | 20.2 | 7.4 | – | – |
| CCCOC(=O)[C@]12CCC(C)(C)C[C@H]1C1=CC[C@@H]3[C@@]4(C)CC[C@H](O[C@@H]5OC[C@H](O[C@@H]6O[C@H](CO)[C@@H](O)[C@H](O)[C@H]6O)[C@H](O)[C@H]5O[C@@H]5O[C@@H](C)[C@H](O)[C@@H](O)[C@H]5O)C(C)(C)[C@@H]4CC[C@@]3(C)[C@]1(C)CC2 | 4.7 | 8.3 | 1.8 | 12.3 | 9.7 | 11.9 | – | – |
| C[C@@H]1O[C@@H](O[C@H]2[C@H](O[C@H]3CC[C@]4(C)[C@H]5CC=C6[C@@H]7CC(C)(C)CC[C@]7(C(=O)OCC(=O)O)CC[C@@]6(C)[C@]5(C)CC[C@H]4C3(C)C)OC[C@H](O[C@@H]3O[C@H](CO)[C@@H](O)[C@H](O)[C@H]3O)[C@@H]2O)[C@H](O)[C@H](O)[C@H]1O | 2.2 | 1.8 | 2 | 2.7 | 3.9 | 3.3 | 7 | – |
| C[C@@H]1O[C@@H](O[C@H]2[C@H](O[C@H]3CC[C@]4(C)[C@H]5CC=C6[C@@H]7CC(C)(C)CC[C@]7(C(=O)OCCC(=O)O)CC[C@@]6(C)[C@]5(C)CC[C@H]4C3(C)C)OC[C@H](O[C@@H]3O[C@H](CO)[C@@H](O)[C@H](O)[C@H]3O)[C@@H]2O)[C@H](O)[C@H](O)[C@H]1O | 2.7 | 9.8 | 4.6 | 5.4 | 11.1 | 6.5 | – | – |
| C[C@@H]1O[C@@H](O[C@H]2[C@H](O[C@H]3CC[C@]4(C)[C@H]5CC=C6[C@@H]7CC(C)(C)CC[C@]7(C(=O)O)CC[C@@]6(C)[C@]5(C)CC[C@H]4C3(C)C)OC[C@H](O[C@@H]3O[C@H](CO)[C@@H](O)[C@H](O)[C@H]3O)[C@@H]2O)[C@H](O)[C@H](O)[C@H]1O [HEDERACOLCHISIDE A1] | 2.8 | 3.7 | 2.2 | 3.3 | 8.4 | 1.7 | < 0.042 | MTD at 168 h [14]: < 8 mg/kg; inhibition in vivo at 6 mg/kg [15]: 47.5%; Activity (Mus musculus [16]): 41.76 g; IC50 [17]: 2.8 µM; IC50 [18]: 3.7 µM; IC50 [19]: 2.2 µM; IC50 [20]: 1.3 µM; IC50 [21]: 8.4 µM; IC50 [22]: 1.7 µM |

Reference: ChEMBL document CHEMBL3856255, “Synthesis and biological evaluation of Hederacolchiside A1 derivatives as anticancer agents” (Bioorg Med Chem Lett, 2016)
